From patent publication EP0625155B1, “PYRROLOIMIDAZOLYL AND IMIDAZOPYRIDINYL SUBSTITUTED 1H-BENZIMIDAZOLE DERIVATIVES AS AROMATASE INHIBITORS” (JANSSEN PHARMACEUTICA N.V., priority 1992, dated 1993)

Assays:
Corticosterone = Corticosterone production in LHRH/ACTH-injected rats; set-up: species or system Adult male Wistar rats; conditions: Rattus norvegicus, po; 10 mg/kg orally by gavage; LHRH/ACTH injected 1 h later; plasma 2 h after stimulation; % non-recovered relative to untreated controls; read-out: Corticosterone in vivo (% inhibition) 10 mg/kg / 2h
Procedure: (§1) Adult male Wistar rats weighing 250 g were starved 24 h before the start of the experiment. Between 8 and 9 a.m. 10 mg/kg of the test compounds were administered orally by gavage. One hour later, the animals were injected intramuscularly with 40 ng of Luteinizing Hormone Releasing Hormone (LHRH) (Receptal®) and 25 µg of Adrenocorticotropic Hormone (ACTH1-24) (Cortrosyn®). To avoid stress, the animals were also anesthetized with 7.5 mg of pentobarbital. Two hours after stimulation, the animals were killed by decapitation and trunk blood was collected in heparinized tubes. […] Corticosterone was measured using radio immunoassay with ^3H-labelled corticosterone and dextrane-coated charcoal to separate bound and free steroid.

Plasma estradiol = experiment: Estradiol production in PMSG-injected rats; set-up: species or system Female Wistar rats; conditions: Rattus norvegicus; 1 mg/kg by gavage three days after 200 I.U. PMSG s.c.; plasma 2 h after administration; % non-recovered relative to untreated controls; read-out: Estradiol in vivo (% inhibition) 1 mg/kg / 2h
Procedure: Female Wistar rats weighing 150 g were injected with 200 I.U. Pregnant Mare's Serum Gonadotropin (PMSG) (Folligon®) subcutaneously. Three days later 1 mg/kg of the test compound, dissolved in 20% polyethyleneglycol in water, was administered by gavage. Control animals received 20% polyethyleneglycol only. Two hours after drug or placebo administration the animals were killed by decapitation and trunk blood was collected in heparinized tubes. Plasma estradiol was measured using a direct fluorescence immunoassay.

Plasma testosterone = experiment: Testosterone production in LHRH/ACTH-injected rats; set-up: species or system Adult male Wistar rats; conditions: Rattus norvegicus, po; 10 mg/kg orally by gavage; LHRH/ACTH injected 1 h later; plasma 2 h after stimulation; % non-recovered relative to untreated controls; read-out: Testosterone in vivo (% inhibition) 10 mg/kg / 2h
Procedure: as §1

| Structure (SMILES) | inhibition at 10 mg/kg (Corticosterone) | inhibition at 1 mg/kg (Plasma estradiol) | inhibition at 10 mg/kg (Plasma testosterone) |
| --- | --- | --- | --- |
| c1ccc(Cn2cnc3ccc(C4CCc5cncn54)cc32)cc1 (racemic) [compound 38] | 7% | 42% | 80% |
| c1cc2ncn(C3CCCCC3)c2cc1C1CCc2cncn21 (racemic) [compound 35] | 22% | 77% | 92% |
| c1cc2ncn(C3CC3)c2cc1C1CCc2cncn21 (racemic) [compound 41, (±)-1-cyclopropyl-6-(6,7-dihydro-5H-pyrrolo[1,2-c]imidazol-5-yl)-1H-benzimidazole dinitrate] | 39% | 89% | 91% |
| CCn1cnc2ccc(C3CCc4cncn43)cc21 (racemic) [compound 39] | 39% | 90% | 93% |
| Cc1nc2cc(C3CCc4cncn43)ccc2[nH]1 (racemic) [compound 47, (±)-5-(6,7-dihydro-5H-pyrrolo-[1,2-c]imidazol-5-yl)-2-methyl-1H-benzimidazole] | 4% | 72% | 85% |
| CCCCCn1cnc2ccc(C3CCc4cncn43)cc21 (racemic) [compound 31] | 28% | 69% | 91% |
| CC(C)n1cnc2ccc(C3CCc4cncn43)cc21 (racemic) [compound 42] | 33% | 93% | 98% |
| CCCCn1c(CC)nc2ccc(C3CCc4cncn43)cc21 (racemic) [compound 34] | 21% | 80% | 12% |
| c1ccc(-n2cnc3ccc(C4CCc5cncn54)cc32)cc1 (racemic) [compound 37] | 22% | 31% | 96% |
| CCCCCCn1cnc2ccc(C3CCc4cncn43)cc21 (racemic) [compound 32] | 37% | 65% | 67% |
| Cn1cnc2ccc(C3CCc4cncn43)cc21 (racemic) [compound 23] | 31% | 78% | 81% |
| c1nc2cc(C3CCc4cncn43)ccc2[nH]1 (racemic) [compound 46] | 23% | 77% | 78% |
| C=CCn1cnc2ccc(C3CCc4cncn43)cc21 (racemic) [compound 49] | 13% | 81% | 90% |
| CCCCn1cnc2ccc(C3CCc4cncn43)cc21 (racemic) [compound 22] | 35% | 91% | 92.5% |
| CCCCn1c(O)nc2ccc(C3CCc4cncn43)cc21 (racemic) [compound 48, (±)-1-butyl-6-(6,7-dihydro-5H-pyrrolo[1,2-c]imidazol-5-yl)-1H-benzimidazol-2-ol] | 4% | 77% | 93% |
| CCCn1cnc2ccc(C3CCc4cncn43)cc21 (racemic) [compound 33] | 55% | 82% | 98% |
| c1ccc(-c2nc3cc(C4CCc5cncn54)ccc3[nH]2)cc1 (racemic) [compound 43] | 20% | 54% | 64% |
| CCCCn1c(NC(=O)OC)nc2ccc(C3CCc4cncn43)cc21 (racemic) [compound 44] | 10% | 66% | 66% |
